# Measured values as given in patent US12129235B2, “TSPO binders” (The University Court of the University of Glasgow, priority 2018, dated 2024).
# Assay: Radiometabolite and arterial blood analysis
# Assay type: in vivo, rats
# Conditions: rat; 120 minutes post-injection
# Procedure: In a separate set of experiments (radiometabolite studies), the femoral artery was cannulated for blood sampling and the radiotracer was administered i.v. via tail vein. Surgical cannulation of femoral vein and artery was performed as follows: polyethylene catheters (PE50) filled with heparinized saline (20 IU/mL) were inserted into the left femoral artery or vein with the help of a stereomicroscope and securely fastened with ligatures (6-0 silk thread). Catheters were held in place with surgical glue. Body temperature was maintained by heated scanner bed or heated mat and monitored by rectal thermometer. Vital signs, including heart rate and respiration rate were monitored continuously during the experiments.
# Arterial blood samples were collected at 2, 5, 10, 20, 30, 60 and 120 minutes post-radiotracer administration (69.8±9.2 MBq, n=17 rats). […] Following blood collection, all samples were kept on ice until analyzed. Radioactivity in whole blood and plasma was assessed using a well-type γ-counter using a 400-1400 keV window (Perkin Elmer Wizzard2, USA). Plasma samples (400 μL) were processed by acetonitrile denaturation and analyzed by HPLC (Ultimate2000, ThermoFisher, UK) on a Luna C18(2) column (Luna C18(2), 10×250 mm, 10 μm, Phenomenex, UK) with a mobile phase of acetonitrile/water 70/30 at a flow rate of 4 mL/min to estimate the parent fraction. […]
smiles,measurement,value
"CC[C@@H](C)N(C)C(=O)c1nc2ccccc2c(-c2ccccc2)c1C[18F] [^18F-LW223, (R)-(N-sec-Butyl)-3-[19-fluoro]-methyl-N-methyl-4-phenylquinoline-2-carboxamide]",parent in arterial blood,approximately 70%
